Reference: patent publication US20060084577A1, “Formulation and application of Indole-Derivatives for avoiding fruit and vegetable cracking” (priority 2004, published 2006)

System: sweet cherries, 'Schneiders' variety
Test: Field trial of cracking of sweet cherries after application of Tryptophane on cherry trees
Format: in vivo, Prunus avium L.
Conditions: for Number of Damaged Fruits / Percentage of Damaged Fruits: 20 and 29 Jun. 2002, 300 cherries sampled at harvest, evaluated Jul. 7, 2002 after heavy rainfall
Description: The following Experiments describe the results of field trials, showing the reducing effect on the cracking of cherries by applying Tryptophane on cherry trees. The influence of the application of the anti-cracking formulation of the present invention on cracking of sweet cherries, was tested on the commercially available ‘Schneiders’ variety of sweet cherry in Belgium during the 2002 growing season. The plant density was approximately 1,646 stems per acre (666 stems/hectare or “ha”). Two different amounts of Tryptophane were applied on the cherry tries and compared with an untreated control. • Experiment 1: Control Group (No treatment with the anti-cracking formulation.) • Experiment 2: 0.0223 lb/acre (25 g/ha) Tryptophane, on 20 Jun. 2002, and 0.0223 lb/acre (25 g/ha) Tryptophane, on 29 Jun. 2002. • Experiment 3: 0.0446 lb/acre (50 g/ha) Tryptophane, on 20 Jun. 2002, and 0.0446 lb/acre (50 g/ha) Tryptophane, on 29 Jun. 2002.
On Jun. 20, 2002, the plants of Experiment 1 and Experiment 2, as listed above, were treated in the evening, under sunny conditions, 71.6° F. (22° C.), and little wind. The cherries began to ripen. On Jun. 29, 2002, the plants of Experiment 1 and Experiment 2 were again treated in the evening, at sunny growth conditions, under slightly cloudy skies, 68° F. (20° C.), and moderate wind. The ripening of the cherries was fully underway.
An evaluation of the cherries in the above Experiments were made on Jul. 7, 2002, after heavy rainfall. For the Experiment's Results, as listed in TABLE 1, below, 300 cherries were randomly sampled at harvest, from which the number of intact and damaged cherries was determined.

[1] = 2* 0.0223 lb/acre (25 g/ha) Tryptophane
[2] = 2*0.0446 lb/acre (50 g/ha) Tryptophane

SMILES: N[C@@H](Cc1c[nH]c2ccccc12)C(=O)O [Tryptophane]
- Number of Damaged Fruits [1]: 78
- Percentage of Damaged Fruits [1]: 26%
- Number of Damaged Fruits [2]: 42
- Percentage of Damaged Fruits [2]: 14%
- reduction of the damage to the cherries (double application of 0.0446 lbs per acre (50 g per hectare), versus untreated control): approximately 50%
